Literature values, collected in patent publication US20250295673A1, “TREATMENT OF BREAST CANCER” (priority 2024, published 2025).
Entries after “also recorded” stand apart in the source; their conditions may differ.

Assays:
[1] = tested on: FSH (Follicle Stimulating Hormone) and LH (Leutinizing Hormone) release; conditions: nandrolone alone
[2] = molecular target: T1, SHBG (Homo sapiens, UniProt P04278); conditions: releases testosterone, nandrolone, oxandrolone from SHBG
T1 sequence (P04278 30-402): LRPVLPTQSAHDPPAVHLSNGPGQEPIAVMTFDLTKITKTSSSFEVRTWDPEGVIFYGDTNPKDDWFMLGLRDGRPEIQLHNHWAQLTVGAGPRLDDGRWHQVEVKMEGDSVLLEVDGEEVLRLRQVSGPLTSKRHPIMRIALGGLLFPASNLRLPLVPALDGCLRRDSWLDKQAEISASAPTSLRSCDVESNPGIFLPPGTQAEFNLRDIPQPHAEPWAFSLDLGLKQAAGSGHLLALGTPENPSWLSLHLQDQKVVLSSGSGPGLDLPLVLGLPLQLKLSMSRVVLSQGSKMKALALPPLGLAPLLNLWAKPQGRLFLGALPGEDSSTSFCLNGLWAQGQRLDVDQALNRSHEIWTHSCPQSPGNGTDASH

[3] = tested on: brain oxytocin; conditions: topically applied vaginally

SMILES | effect on FSH and LH release from the pituitary [1] | net increase of androgens by release from SHBG [2] | effect on brain oxytocin [3]
C[C@]12CC[C@H]3[C@@H](CCC4=CC(=O)CC[C@@H]43)[C@@H]1CC[C@@H]2O [nandrolone] | suppresses |  | 
C[C@]12Cc3c[nH]nc3C[C@@H]1CC[C@@H]1[C@@H]2CC[C@@]2(C)[C@H]1CC[C@]2(C)O [stanozolol] |  | four-fold | increases brain oxytocin; also recorded: raises a user's oxytocin levels
